Reference: ChEMBL document CHEMBL1201862, “PubChem BioAssay data set” (2004)
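Interpolation was linear, between the two tested concentrations surrounding the appropriate level; five concentrations were tested over 48 hours in 96-well plates. Here, GI50 denotes the concentration required for 50% inhibition of growth.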 Active and inactive are the calls of the source. Rule as the data show it: active = GI50 up to about 1.1 µM and inactive = higher.

How the values were obtained:
Assay in all cases: NCI anticancer screen, dose series, 48 h
[1] = tested on: Malme-3M
[2] = tested on: SR
[3] = tested on: SN12C
[4] = tested on: SW-620
[5] = tested on: BT-549
[6] = tested on: MOLT-4
[7] = tested on: SK-OV-3
[8] = tested on: OVCAR-3
[9] = tested on: OVCAR-5
[10] = tested on: IGROV-1
[11] = tested on: HCC 2998
[12] = tested on: OVCAR-8
[13] = tested on: A498
[14] = tested on: 786-0
[15] = tested on: NCI-H460
[16] = tested on: CCRF-CEM
[17] = tested on: HCT-15
[18] = tested on: RPMI-8226
[19] = tested on: MDA-MB-231
[20] = tested on: TK-10
[21] = tested on: K562
[22] = tested on: SK-MEL-2
[23] = tested on: CAKI-1
[24] = tested on: PC-3
[25] = tested on: RXF 393
[26] = tested on: HL-60
[27] = tested on: U-251
[28] = tested on: MDA-MB-435
[29] = tested on: M14
[30] = tested on: ACHN
[31] = tested on: UACC-257
[32] = tested on: OVCAR-4
[33] = tested on: A549
[34] = tested on: HOP-62
[35] = tested on: NCI-H522
[36] = tested on: MCF7
[37] = tested on: HCT-116
[38] = tested on: SNB-75
[39] = tested on: SNB-19
[40] = tested on: LOX IMVI
[41] = tested on: MDA-N
[42] = tested on: COLO 205
[43] = tested on: SK-MEL-5
[44] = tested on: NCI-H23
[45] = tested on: EKVX
[46] = tested on: NCI/ADR-RES
[47] = tested on: SF-539
[48] = tested on: KM12
[49] = tested on: UACC-62
[50] = tested on: Hs-578T
[51] = tested on: NCI-H226
[52] = tested on: HT-29
[53] = tested on: HOP-92
[54] = tested on: SF-295
[55] = tested on: T47D
[56] = tested on: UO-31
[57] = tested on: SK-MEL-28
[58] = tested on: SF-268
[59] = tested on: DU-145

In the case of `N=C(N)C1CN(CCCCCCCCCCN2CC(C(=N)N)C(O)=NC2=O)C(=O)N=C1O` (stereo not given), the GI50 [1] is reported as > 10 µM (inactive), the GI50 [2] is reported as > 10 µM (inactive) and the GI50 [3] is reported as > 10 µM (inactive). The GI50 [4] was > 10 µM (inactive), the GI50 [5] was > 10 µM (inactive) and the GI50 [6] was > 10 µM (inactive). The GI50 [7] was > 10 µM (inactive), the GI50 [8] was > 10 µM (inactive) and the GI50 [9] was > 10 µM (inactive). For the same compound, the GI50 [10] was > 10 µM (inactive), the GI50 [11] was > 10 µM (inactive) and the GI50 [12] was > 10 µM (inactive). The GI50 [13] was > 10 µM (inactive), the GI50 [14] was > 10 µM (inactive) and the GI50 [15] was > 10 µM (inactive). The GI50 [16] was > 10 µM (inactive), the GI50 [17] was greater than 10 µM and the GI50 [18] was > 10 µM (inactive). For the same compound, the GI50 [19] was > 10 µM (inactive), the GI50 [20] was > 10 µM (inactive) and the GI50 [21] was > 10 µM (inactive). The GI50 [22] was > 10 µM (inactive), the GI50 [23] was > 10 µM (inactive) and the GI50 [24] was > 10 µM (inactive). For the same compound, the GI50 [25] was > 10 µM (inactive), the GI50 [26] was > 10 µM (inactive) and the GI50 [27] was > 10 µM (inactive). The GI50 [28] was > 10 µM (inactive), the GI50 [29] was > 10 µM (inactive) and the GI50 [30] was > 10 µM (inactive). For the same compound, the GI50 [31] was > 10 µM (inactive), the GI50 [32] was > 10 µM (inactive) and the GI50 [33] was > 10 µM (inactive). The GI50 [34] was > 10 µM (inactive), the GI50 [35] was > 10 µM (inactive) and the GI50 [36] was > 10 µM (inactive). The GI50 [37] was > 10 µM (inactive), the GI50 [38] was > 10 µM (inactive) and the GI50 [39] was > 10 µM (inactive). For the same compound, the GI50 [40] was > 10 µM (inactive), the GI50 [41] was > 10 µM (inactive) and the GI50 [42] was > 10 µM (inactive). For the same compound, the GI50 [43] was > 10 µM (inactive), the GI50 [44] was > 10 µM (inactive) and the GI50 [45] was > 10 µM (inactive). The GI50 [46] was > 10 µM (inactive), the GI50 [47] was > 10 µM (inactive) and the GI50 [48] was > 10 µM (inactive). The GI50 [49] was > 10 µM (inactive), the GI50 [50] was > 10 µM (inactive) and the GI50 [51] was > 10 µM (inactive). For the same compound, the GI50 [52] was > 10 µM (inactive), the GI50 [53] was > 10 µM (inactive) and the GI50 [54] was > 10 µM (inactive). The GI50 [55] was > 10 µM (inactive).

`COc1nc(N(C)C)nc2c1[n+](C)cn2C` [HETEROMINE A] was tested, and the GI50 [1] was 23.1 µM (inactive), the GI50 [3] was 72.8 µM (inactive) and the GI50 [4] was 57.5 µM (inactive). For the same compound, the GI50 [5] was 28.7 µM (inactive), the GI50 [6] was 97.9 µM (inactive) and the GI50 [7] was > 100 µM (inactive). For the same compound, the GI50 [8] was 47 µM (inactive), the GI50 [9] was > 100 µM (inactive) and the GI50 [10] was > 100 µM (inactive). The GI50 [12] was 44.1 µM (inactive), the GI50 [13] was > 100 µM (inactive) and the GI50 [14] was 48.3 µM (inactive). The GI50 [15] was 44.2 µM (inactive), the GI50 [16] was 30.3 µM (inactive) and the GI50 [17] was greater than 100 µM. The GI50 [18] was 6.08 µM (inactive), the GI50 [19] was > 100 µM (inactive) and the GI50 [56] was > 100 µM (inactive). For the same compound, the GI50 [20] was > 100 µM (inactive), the GI50 [21] was 18.6 µM (inactive) and the GI50 [22] was 32.2 µM (inactive). The GI50 [23] was > 100 µM (inactive), the GI50 [24] was > 100 µM (inactive) and the GI50 [25] was 84.1 µM (inactive). For the same compound, the GI50 [26] was 36.6 µM (inactive), the GI50 [27] was 15.6 µM (inactive) and the GI50 [28] was 74.8 µM (inactive). For the same compound, the GI50 [57] was 88.9 µM (inactive), the GI50 [29] was > 100 µM (inactive) and the GI50 [30] was > 100 µM (inactive). The GI50 [31] was 53.1 µM (inactive), the GI50 [58] was 31.8 µM (inactive) and the GI50 [33] was 46.9 µM (inactive). For the same compound, the GI50 [34] was > 100 µM (inactive), the GI50 [35] was 17.1 µM (inactive) and the GI50 [59] was > 100 µM (inactive). The GI50 [37] was 77.8 µM (inactive), the GI50 [38] was > 100 µM (inactive) and the GI50 [39] was 25.1 µM (inactive). For the same compound, the GI50 [40] was 84.5 µM (inactive), the GI50 [41] was 94.6 µM (inactive) and the GI50 [42] was 30.8 µM (inactive). For the same compound, the GI50 [43] was 41.7 µM (inactive), the GI50 [44] was 22.4 µM (inactive) and the GI50 [45] was > 100 µM (inactive). For the same compound, the GI50 [46] was > 100 µM (inactive), the GI50 [47] was 52.6 µM (inactive) and the GI50 [48] was 27.7 µM (inactive). The GI50 [49] was > 100 µM (inactive), the GI50 [50] was 40.3 µM (inactive) and the GI50 [51] was > 100 µM (inactive). For the same compound, the GI50 [52] was > 100 µM (inactive), the GI50 [53] was > 100 µM (inactive) and the GI50 [54] was 38.9 µM (inactive). The GI50 [55] was 41.5 µM (inactive).
